Measurements: US20110112044A1, “NOVEL USES OF D-MANNOPYRANOSE DERIVATIVES” (CENTRE NATIONAL DE LA RECHERCHE SCIENTIFIQUE, priority 2008, published 2011)

Each compound was assayed on chorioallantoic membrane (CAM) of chick embryo (assay: Chick embryo chorioallantoic membrane (CAM) angiogenesis assay). Settings: 20 μL of 6 mg/mL in PBS on nitrocellulose disk placed on CAM on 7th day, observed 12th day, estimated visually.
Assay type: in vivo, chick (white Leghorn)
From the text: In this example, the activity of mannose-6-phosphate (M6P) and of the compounds of formulae (I-1), (I-2) and (I-3) as prepared in examples 1 to 3 above, respectively, on the inhibition of angiogenesis was studied, in comparison with three D-mannopyranoside (DM) derivatives having pro-angiogenic activity and thus not forming part of the invention (DM1: methyl 7-amino-6,7-dideoxy-α-D-mannopyranoside; DM2: methyl 6-azido-6-deoxy-α-D-mannopyranoside and DM3: methyl 7-disodiumphosphonato-6,7-dideoxy-α-D-mannohepto-pyranoside). This study was performed on chick embryos according to the method described by Ribatti D. et al., Nat. Protoc., 2006, 1(1), 85-91 with a few minor modifications.
This study was performed on the chorioallantoic membrane (CAM) of chick embryo. The CAM is an extra-embryonic membrane formed on the fourth day of incubation by fusion of the chorion and of the allantois. It allows gas exchange between the chick embryo and the extra-embryonic environment up to the time of birth. This CAM is composed of a very thick capillary network that forms a continuous surface in direct contact with the shell. Rapid capillary proliferation of this membrane continues up to the 11th day; the mitotic index then decreases rapidly and the vascular system reaches its final organization on the 18th day, just before birth (hatching on the 21st day).
Fertilized eggs of a hen of the white Leghorn race were placed in an incubator from the start of embryogenesis, where they were kept under constant humidity at a temperature of 38° C. On the second day of incubation, a window was opened in the shell after removal of 2 to 3 mL of albumin in order to detach the CAM from the shell. The window was then sealed with adhesive tape and the egg was returned to the incubator to continue its development up to the date of the experiment. On the 7th day, pieces of inert synthetic polymers (nitrocellulose filter disks 0.4 cm in diameter) were soaked with 20 μL of each of the solutions of the test compounds (6 mg/mL in PBS) and then positioned on the CAM. The impact of the test substances on the angiogenesis was then observed on the 12th day and the quantitative evaluation of the pro- or anti-angiogenic response was estimated visually.

Row | SMILES | effect on the vascularization of chick embryos
1 | CO[C@H]1O[C@H](CCN)[C@@H](O)[C@H](O)[C@@H]1O [DM1, methyl 7-amino-6,7-dideoxy-α-D-mannopyranoside, reference compound] | activating effect
2 | CO[C@H]1OC(CC(=O)O)[C@@H](O)C(O)C1O (stereo partly drawn) [(I-2), (Methyl 6,7-Dideoxy-α-D-Mannoheptopyranosine)uronic acid] | inhibitory effect
3 | CO[C@H]1OC(CC(C(=O)O)C(=O)O)[C@@H](O)C(O)C1O (stereo partly drawn) [(I-3), methyl 6-deoxy-6-malonate-α-D-Mannopyranoside] | inhibitory effect
4 | COC1O[C@H](COP(=O)(O)O)[C@@H](O)[C@H](O)[C@@H]1O (stereo partly drawn) [M6P, methyl D-mannopyranoside 6-phosphate] | inhibitory effect
5 | CO[C@H]1O[C@H](CCS(=O)(=O)[O-])[C@@H](O)[C@H](O)[C@@H]1O.[Na+] [(I-1), Methyl 6,7-Dideoxy-7-Sodiumsulfonato-α-d-mannoheptopyranoside] | inhibitory effect
6 | CO[C@H]1O[C@H](CN=[N+]=[N-])[C@@H](O)[C@H](O)[C@@H]1O [DM2, methyl 6-azido-6-deoxy-α-D-mannopyranoside, reference compound] | activating effect
7 | CO[C@H]1O[C@H](CCP(=O)([O-])[O-])[C@@H](O)[C@H](O)[C@@H]1O.[Na+].[Na+] [DM3, methyl 7-disodiumphosphonato-6,7-dideoxy-α-D-mannohepto-pyranoside, reference compound] | activating effect
